In test [1] the target is Lysine-specific demethylase 4C (Homo sapiens, UniProt Q9H3R0). In words: GASC-1 (JMJD2C) histone demethylase inhibitors, dose response, biochemical, DELFIA europium, cherry-picked samples (AID 488835). In kind it is functional.
The next test addresses Beta-galactosidase (Escherichia coli, UniProt Q8VNN2). The experiment in a line: PubChem AID 485352. It is filed as functional.
Test [2] has as its target T1, Type-1 angiotensin II receptor (Homo sapiens, UniProt P30556).
T1 sequence (P30556 whole entry): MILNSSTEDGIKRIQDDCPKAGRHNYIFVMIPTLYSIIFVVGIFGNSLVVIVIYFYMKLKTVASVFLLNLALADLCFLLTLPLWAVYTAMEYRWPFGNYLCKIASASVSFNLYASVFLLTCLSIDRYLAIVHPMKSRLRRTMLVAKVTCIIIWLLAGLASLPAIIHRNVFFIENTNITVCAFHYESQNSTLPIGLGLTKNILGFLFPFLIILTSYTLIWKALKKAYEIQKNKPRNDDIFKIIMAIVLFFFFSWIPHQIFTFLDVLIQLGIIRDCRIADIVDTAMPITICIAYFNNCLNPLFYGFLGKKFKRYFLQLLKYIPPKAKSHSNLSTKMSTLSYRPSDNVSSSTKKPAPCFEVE
The experiment in a line: AT1 receptor antagonists, dose response, selectivity assay for APJ receptor antagonist project, cell-based, uHTS hits (AID 463214).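 Further: antagonist potency against angiotensin II stimulated AT1 response.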 It is filed as functional.

Test [3] has as its target T2, Apoptotic protease-activating factor 1 (Homo sapiens, UniProt O14727).
T2 sequence (O14727 whole entry): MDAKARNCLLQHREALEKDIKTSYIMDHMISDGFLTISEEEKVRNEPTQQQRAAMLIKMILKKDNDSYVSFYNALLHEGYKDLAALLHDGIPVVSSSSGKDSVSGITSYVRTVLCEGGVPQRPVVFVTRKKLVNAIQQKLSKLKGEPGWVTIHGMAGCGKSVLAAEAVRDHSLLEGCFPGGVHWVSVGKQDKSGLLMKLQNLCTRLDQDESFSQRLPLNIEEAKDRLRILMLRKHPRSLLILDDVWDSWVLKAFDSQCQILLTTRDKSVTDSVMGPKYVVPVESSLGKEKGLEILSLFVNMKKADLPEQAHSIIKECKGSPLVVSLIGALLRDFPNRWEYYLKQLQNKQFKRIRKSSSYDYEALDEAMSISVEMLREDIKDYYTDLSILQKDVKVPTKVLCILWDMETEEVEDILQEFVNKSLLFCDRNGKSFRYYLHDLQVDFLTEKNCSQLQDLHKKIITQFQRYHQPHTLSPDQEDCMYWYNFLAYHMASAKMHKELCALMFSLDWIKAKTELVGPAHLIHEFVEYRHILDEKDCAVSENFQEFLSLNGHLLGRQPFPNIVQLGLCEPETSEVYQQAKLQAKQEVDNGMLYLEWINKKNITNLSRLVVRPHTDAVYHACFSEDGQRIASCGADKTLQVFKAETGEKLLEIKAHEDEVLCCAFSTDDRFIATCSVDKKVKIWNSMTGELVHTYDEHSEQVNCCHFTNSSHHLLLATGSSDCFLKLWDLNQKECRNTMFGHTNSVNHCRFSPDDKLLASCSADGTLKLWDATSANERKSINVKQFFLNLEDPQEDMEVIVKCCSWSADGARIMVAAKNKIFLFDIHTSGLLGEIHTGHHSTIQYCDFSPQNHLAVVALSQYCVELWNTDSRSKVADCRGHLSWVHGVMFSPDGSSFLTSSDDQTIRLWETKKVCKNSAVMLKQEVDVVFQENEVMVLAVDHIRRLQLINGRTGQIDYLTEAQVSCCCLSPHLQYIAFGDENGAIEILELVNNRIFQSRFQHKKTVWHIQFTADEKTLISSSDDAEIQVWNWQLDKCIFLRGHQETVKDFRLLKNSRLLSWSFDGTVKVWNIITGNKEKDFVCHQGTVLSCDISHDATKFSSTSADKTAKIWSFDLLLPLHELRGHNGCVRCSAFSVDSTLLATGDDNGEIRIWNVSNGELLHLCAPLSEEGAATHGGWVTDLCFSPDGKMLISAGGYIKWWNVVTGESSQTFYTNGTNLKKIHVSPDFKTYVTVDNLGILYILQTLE
In kind it is functional.

Test [4] addresses T3, Histone-lysine N-methyltransferase NSD2 (Homo sapiens, UniProt O96028).
T3 sequence (O96028 whole entry): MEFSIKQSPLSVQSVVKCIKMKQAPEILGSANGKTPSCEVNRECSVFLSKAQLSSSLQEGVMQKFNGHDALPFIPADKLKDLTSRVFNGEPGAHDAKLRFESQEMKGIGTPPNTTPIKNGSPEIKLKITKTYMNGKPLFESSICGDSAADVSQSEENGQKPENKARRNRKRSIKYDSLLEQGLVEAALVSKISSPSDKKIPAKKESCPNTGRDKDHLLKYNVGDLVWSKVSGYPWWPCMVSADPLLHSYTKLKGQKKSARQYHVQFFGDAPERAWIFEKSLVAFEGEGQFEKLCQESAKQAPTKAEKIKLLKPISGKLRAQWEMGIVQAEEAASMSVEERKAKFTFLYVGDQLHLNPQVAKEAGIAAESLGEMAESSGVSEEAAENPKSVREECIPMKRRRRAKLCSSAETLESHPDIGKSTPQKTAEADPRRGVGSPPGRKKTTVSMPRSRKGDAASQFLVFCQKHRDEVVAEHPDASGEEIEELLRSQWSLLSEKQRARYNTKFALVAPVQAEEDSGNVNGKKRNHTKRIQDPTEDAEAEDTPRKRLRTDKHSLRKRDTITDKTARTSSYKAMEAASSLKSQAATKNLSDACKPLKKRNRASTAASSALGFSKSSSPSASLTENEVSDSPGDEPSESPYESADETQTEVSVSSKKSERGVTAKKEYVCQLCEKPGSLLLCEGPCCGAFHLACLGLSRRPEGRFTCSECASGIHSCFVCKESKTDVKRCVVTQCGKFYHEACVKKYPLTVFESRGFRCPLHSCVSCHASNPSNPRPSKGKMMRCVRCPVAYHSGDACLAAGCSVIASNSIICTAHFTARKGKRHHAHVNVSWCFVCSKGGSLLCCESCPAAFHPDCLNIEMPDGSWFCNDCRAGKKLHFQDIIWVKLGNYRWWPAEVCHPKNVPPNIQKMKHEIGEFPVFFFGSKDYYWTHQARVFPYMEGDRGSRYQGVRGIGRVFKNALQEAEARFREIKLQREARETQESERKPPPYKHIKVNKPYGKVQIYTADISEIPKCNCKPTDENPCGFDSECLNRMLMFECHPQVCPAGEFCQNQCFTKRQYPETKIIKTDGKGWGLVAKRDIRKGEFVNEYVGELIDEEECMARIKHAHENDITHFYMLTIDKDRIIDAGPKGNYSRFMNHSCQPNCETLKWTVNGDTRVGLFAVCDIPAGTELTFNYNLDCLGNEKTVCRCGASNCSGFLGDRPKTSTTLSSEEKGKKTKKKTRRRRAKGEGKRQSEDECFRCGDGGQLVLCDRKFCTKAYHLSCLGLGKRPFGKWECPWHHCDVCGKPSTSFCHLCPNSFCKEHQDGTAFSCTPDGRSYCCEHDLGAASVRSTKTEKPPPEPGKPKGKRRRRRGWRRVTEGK
It is filed as biochemical.

For test [5], the system named is HEK293. The experiment in a line: cytotoxicity in HEK293T NF-kB-Luc cells, SAR follow-up, cytotoxicity control for NF-kB activator project, cell-based, resazurin fluorescence (AID 493251). In kind it is functional. The following applies: Homo sapiens. A general note: Alamar Blue is a resazurin reagent that responds to reducing activity.
Test [6] is described as follows: HepG2 cell cytotoxicity, dose response, cytotoxicity control for Shn3 inhibitor project, CellTiter-Glo, cherry-picked (AID 624134). In kind it is functional, cell-based. In general terms: ATP-based viability assays read luminescence as a measure of living cells.
A further test deals with Jurkat. In words: SAR Analysis of small molecule inhibitors of T-cell specific antigen receptor-induced NF-kB activation in a Jurkat cell line using a luminescence assay - Set 2. [Related pubchem assays (depositor defined):AID435003, AID435012, AID465]. It is filed as functional, cell-based. The following applies: Homo sapiens.
A short description of test [7]: control 3'UTR Renilla luciferase suppression, dose response, counter-screen for Shn3 inhibitor project, cell-based, Clone20-Shn3RL, cherry-picked (AID 624133). It is filed as functional. (In general: The purpose of a counterscreen is to sort out artefacts and off-target activity.)
Test [8] concerns the target Latent membrane protein 1 (Human herpesvirus 4 (strain B95-8), UniProt P03230). The experiment in a line: TES1-eGFP NF-kB reporter inhibition versus Tet-On dsRED, dose response, selectivity assay for LMP1 NF-kB inhibitor project, imaging, HEK293T, dual-color eGFP/dsRED, cherry-picks (AID 588398). In kind it is functional, cell-based.
In test [9] the test system is HEK293. In words: inhibitors of LMP1-driven NF-kB reporter, dose response, cell-based, HEK293, luciferase, cherry-pick (AID 588343). The following applies: Homo sapiens. It is filed as functional.
Test [10] relates to HEK293. In words: SAR Analysis of small molecule inhibitors of T-cell specific antigen receptor-induced NF-kB activation in a HEK-293T cell line using a luminescence assay - Set 2. [Related pubchem assays (depositor defined):AID435003, AID435012, AID489026]. In kind it is functional, cell-based. The following applies: Homo sapiens.
A short description of test [11]: Shn3 3'UTR reporter inhibitors, dose response, cell-based, Clone20 osteoblasts, firefly luciferase, cherry-picked (AID 624132).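 Further: firefly luciferase luminescence from reporter carrying the Shn3 3'UTR in osteoblasts.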 In kind it is functional.
For test [12], the target named is T4, Microphthalmia-associated transcription factor (Homo sapiens, UniProt O75030).
T4 sequence (O75030 whole entry): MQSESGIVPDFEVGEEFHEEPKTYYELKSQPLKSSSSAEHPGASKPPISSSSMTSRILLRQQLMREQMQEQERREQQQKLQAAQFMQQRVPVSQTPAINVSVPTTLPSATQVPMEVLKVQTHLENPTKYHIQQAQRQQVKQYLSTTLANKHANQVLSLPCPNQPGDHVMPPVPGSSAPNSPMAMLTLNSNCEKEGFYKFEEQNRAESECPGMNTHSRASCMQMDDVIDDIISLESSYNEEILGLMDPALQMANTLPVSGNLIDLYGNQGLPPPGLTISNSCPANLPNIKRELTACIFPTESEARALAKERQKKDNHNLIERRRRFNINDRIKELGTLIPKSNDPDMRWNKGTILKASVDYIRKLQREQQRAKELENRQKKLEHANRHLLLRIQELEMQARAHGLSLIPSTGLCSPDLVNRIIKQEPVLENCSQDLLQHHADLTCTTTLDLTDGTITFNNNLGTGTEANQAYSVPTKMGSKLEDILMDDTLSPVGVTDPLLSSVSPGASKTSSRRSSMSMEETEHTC
The experiment in a line: TRPM1 promoter luciferase signal decrease, dose response, MITF inhibitor project, cell-based, SK-MEL-5, cherry-picked, set 3 (AID 493073).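 Further: SK-MEL-5 melanoma cells with luciferase driven by the MITF target TRPM1 promoter.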 It is filed as functional.

Test [13] is described as follows: NIH-3T3 fibroblast cytotoxicity, dose response, cytotoxicity control, cell-based, fluorescence, Alamar Blue, secondary assay (AID 2327).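 Further: NIH-3T3 mouse fibroblasts cultured with fluconazole at 8 µg/mL.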 In kind it is functional.
The target of test [14] is Eukaryotic translation initiation factor 4E (Mus musculus, UniProt P63073). In words: eIF4E–eIF4G protein interaction inhibitors, dose response, biochemical, TR-FRET (AID 855).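 Further: potency for disrupting eIF4E binding to eIF4GI seen as loss of FRET.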 In kind it is functional.
Chain of Eukaryotic translation initiation factor 4E (P63073 whole entry): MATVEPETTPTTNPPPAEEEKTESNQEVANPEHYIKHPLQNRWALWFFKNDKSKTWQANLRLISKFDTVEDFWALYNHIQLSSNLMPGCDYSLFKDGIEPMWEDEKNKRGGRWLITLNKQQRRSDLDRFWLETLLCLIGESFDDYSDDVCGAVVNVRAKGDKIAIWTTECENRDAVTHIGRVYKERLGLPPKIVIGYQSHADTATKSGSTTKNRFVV
A short description of test [15]: C. albicans growth with fluconazole, confirmation, fluorescence, retest (AID 2467). In kind it is functional, cell-based.

Active and inactive are the calls of the source.

Chain of Latent membrane protein 1 (P03230 whole entry): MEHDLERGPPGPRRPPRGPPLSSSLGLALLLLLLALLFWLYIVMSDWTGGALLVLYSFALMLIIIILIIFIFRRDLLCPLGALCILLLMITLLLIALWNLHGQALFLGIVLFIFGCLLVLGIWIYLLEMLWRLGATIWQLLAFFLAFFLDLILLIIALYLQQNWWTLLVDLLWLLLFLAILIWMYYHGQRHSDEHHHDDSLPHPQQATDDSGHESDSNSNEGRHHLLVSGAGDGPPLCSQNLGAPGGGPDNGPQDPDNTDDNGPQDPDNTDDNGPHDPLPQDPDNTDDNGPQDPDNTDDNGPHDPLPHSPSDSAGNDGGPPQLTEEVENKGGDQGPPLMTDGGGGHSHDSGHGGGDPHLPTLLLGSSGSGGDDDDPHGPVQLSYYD
Chain of Beta-galactosidase (Q8VNN2 whole entry): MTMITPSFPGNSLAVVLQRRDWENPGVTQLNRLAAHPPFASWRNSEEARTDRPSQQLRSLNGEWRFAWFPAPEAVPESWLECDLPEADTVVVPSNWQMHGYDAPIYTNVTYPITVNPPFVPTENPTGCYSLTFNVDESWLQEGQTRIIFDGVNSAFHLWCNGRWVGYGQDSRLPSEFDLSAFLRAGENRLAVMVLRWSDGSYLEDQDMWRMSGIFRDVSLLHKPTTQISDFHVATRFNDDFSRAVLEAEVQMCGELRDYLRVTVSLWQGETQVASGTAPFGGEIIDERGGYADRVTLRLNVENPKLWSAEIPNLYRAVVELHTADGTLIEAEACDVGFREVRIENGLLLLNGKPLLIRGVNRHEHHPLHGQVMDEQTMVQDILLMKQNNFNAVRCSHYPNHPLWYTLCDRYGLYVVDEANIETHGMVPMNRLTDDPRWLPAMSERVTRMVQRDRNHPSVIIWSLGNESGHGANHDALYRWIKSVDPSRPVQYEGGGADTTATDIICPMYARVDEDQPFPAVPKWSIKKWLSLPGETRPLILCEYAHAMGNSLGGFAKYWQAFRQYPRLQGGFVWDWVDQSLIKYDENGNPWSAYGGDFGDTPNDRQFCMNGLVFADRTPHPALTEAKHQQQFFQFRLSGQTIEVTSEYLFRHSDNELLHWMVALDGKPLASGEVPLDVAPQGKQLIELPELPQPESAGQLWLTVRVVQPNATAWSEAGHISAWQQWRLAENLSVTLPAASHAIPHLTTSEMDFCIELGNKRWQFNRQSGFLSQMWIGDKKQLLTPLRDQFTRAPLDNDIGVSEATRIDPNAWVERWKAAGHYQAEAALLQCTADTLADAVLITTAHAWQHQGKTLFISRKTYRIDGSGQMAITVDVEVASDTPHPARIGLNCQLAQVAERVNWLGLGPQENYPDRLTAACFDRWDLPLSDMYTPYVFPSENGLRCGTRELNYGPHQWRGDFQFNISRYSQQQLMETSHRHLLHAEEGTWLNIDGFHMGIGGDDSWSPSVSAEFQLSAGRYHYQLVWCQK
Chain of Lysine-specific demethylase 4C (Q9H3R0 whole entry): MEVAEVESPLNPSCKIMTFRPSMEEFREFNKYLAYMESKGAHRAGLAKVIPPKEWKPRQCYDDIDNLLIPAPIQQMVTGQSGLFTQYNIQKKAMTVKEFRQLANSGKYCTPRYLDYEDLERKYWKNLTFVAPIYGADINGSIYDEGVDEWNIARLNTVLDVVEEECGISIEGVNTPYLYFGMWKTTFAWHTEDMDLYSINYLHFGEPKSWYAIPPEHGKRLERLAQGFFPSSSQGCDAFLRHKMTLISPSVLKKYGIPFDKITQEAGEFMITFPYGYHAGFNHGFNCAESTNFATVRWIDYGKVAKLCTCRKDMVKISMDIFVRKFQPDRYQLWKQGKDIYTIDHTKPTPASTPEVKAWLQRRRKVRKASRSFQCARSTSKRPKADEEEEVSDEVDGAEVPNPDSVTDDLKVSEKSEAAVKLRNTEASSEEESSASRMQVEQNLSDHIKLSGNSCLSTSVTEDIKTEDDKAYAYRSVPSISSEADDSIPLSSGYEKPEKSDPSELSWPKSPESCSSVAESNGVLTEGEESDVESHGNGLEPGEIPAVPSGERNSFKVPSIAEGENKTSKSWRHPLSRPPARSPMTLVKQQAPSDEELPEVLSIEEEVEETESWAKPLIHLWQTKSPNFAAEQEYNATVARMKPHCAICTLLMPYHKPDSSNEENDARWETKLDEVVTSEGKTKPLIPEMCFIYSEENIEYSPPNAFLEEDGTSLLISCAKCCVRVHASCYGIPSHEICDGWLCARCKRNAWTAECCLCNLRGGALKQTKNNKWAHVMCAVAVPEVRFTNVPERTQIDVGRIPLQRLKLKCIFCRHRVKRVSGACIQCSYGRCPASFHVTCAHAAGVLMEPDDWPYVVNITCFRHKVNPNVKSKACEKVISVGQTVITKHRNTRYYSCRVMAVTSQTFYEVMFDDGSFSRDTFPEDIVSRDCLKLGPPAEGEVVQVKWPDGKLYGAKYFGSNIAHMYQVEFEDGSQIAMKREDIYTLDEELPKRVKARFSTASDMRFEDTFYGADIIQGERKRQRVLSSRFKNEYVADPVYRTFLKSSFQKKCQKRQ

One may read the AC50 as the concentration giving half of the maximal activity seen. One may read the EC50 as the concentration at which the effect is half-maximal. As usually defined, the IC50 is the concentration needed to halve the response being measured. For the compound `C=CCN(CC=C)Cc1c(O)ccc2c1oc(=O)c1ccccc12`, the AC50 in test [1] is 480 nM (active); in test [4], 4.02 µM (active). Also, the EC50 on Beta-galactosidase is > 40 µM (inactive). Besides, the values for the IC50 in test [2] and in [3] were > 40 µM (not active) and 60.3 µM (active), respectively.
In the case of `CCCCC(=O)NC(c1ccc(OC)cc1)c1ccc2cccnc2c1O` (stereo not given), the IC50 in the test on HEK293 [5] was 21.7 µM (inactive); with Jurkat, 3.22 µM (active); with HEK293 [10] it was 5.25 µM (active). Besides, the AC50 was 5.14 µM (active) in [6]; 8.8 µM (active) in [7]; 11.6 µM (active) in [8]; 15.8 µM (active) in the test with HEK293 [9]; 2.28 µM (active) in test [11].
As to `NC(=O)C1CCN(C2=C(NS(=O)(=O)c3ccc(Br)cc3)C(=O)c3ccccc3C2=O)CC1`, in test [12], the half-maximal activity concentration (AC50) is 11.9 µM (active). For the same compound, the concentration for half-maximal inhibition (IC50) in test [3] was 16.9 µM (active).
In the case of `Cn1cccc1-c1cc(C(=O)N2CCc3c([nH]c4ccccc34)C2c2ccccn2)[nH]n1` (stereo not given), the EC50 in test [13] was 21.3 µM (active); in [15], 2.76 µM (active). Moreover, the results for the AC50 (in test [8]; with HEK293 [9]) were 21.6 µM (active) and 25.8 µM (active), respectively. The IC50 in test [14] is 50 µM (inactive).

Source of the values: ChEMBL document CHEMBL1201862, “PubChem BioAssay data set” (2004).
